From US20220307013A1, “GENE FRAGMENT OVEREXPRESSION SCREENING METHODOLOGIES, AND USES THEREOF” (priority 2019, published 2022)
Entries after “also recorded” stand apart in the source; their conditions may differ. Where no end group is shown, it is not given here.

Key:
Colo205 = experiment: Cell proliferation assay (CellTiter-Glo), Colo205; assay type: cell-based; settings: Colo205, Human Colon, 72 hrs
Method: (§1) Cell Proliferation Assay. The Tat-RAF1-73, Tat-RAF1-78, Tat-EGFR-697 and Tat-Flag peptides were tested for growth inhibition in an in vitro cell proliferation assay. The assay tested the peptides against ten tumor cell lines and four non-tumor cell lines (Primary Fibroblasts, CCD 841 CoN, human umbilical vein cells and Human Hepatocytes). Cells were plated in a 384 well plate and allowed to grow for 24 hrs. Peptides were then added to cultures at a final concentration range of 100 μM-0.2 μM. Cells and peptides were then reacted for 72 hrs, after which the CellTiter-Glo Luminescent Cell Viability Assay kit (Promega) was used to assess cytotoxicity of therapeutic peptides. IC50 values were determined by the percent cell growth of the untreated (vehicle) control calculated from the luminescence signals compared to test wells. The surviving fraction of cells is determined by dividing the mean luminescence values of the test agents by the mean luminescence values of the untreated control. The inhibitory concentration value, IC50, for the test agents and control was estimated using Prism 8 software (GraphPad Software, Inc.) by curve- fitting the data using the non-linear regression analysis.

Primary Fibroblasts = experiment: Cell proliferation assay (CellTiter-Glo), Primary Fibroblasts; assay type: cell-based; settings: Skin Fibroblast (non-tumor), 72 hrs
Method: as §1

A549 = experiment: Cell proliferation assay (CellTiter-Glo), A549; assay type: cell-based; settings: A549, RAF1 mRNA (Log2) Negative, 72 hrs
Method: as §1

CCD 841 CoN = experiment: Cell proliferation assay (CellTiter-Glo), CCD 841 CoN; assay type: cell-based; settings: Normal Human Colon (non-tumor), 72 hrs
Method: as §1

MDA-MB-231 = experiment: Cell proliferation assay (CellTiter-Glo), MDA-MB-231; assay type: cell-based; settings: MDA-MB-231, EGFR mRNA (Log2) 4.78, 72 hrs
Method: as §1

H929 = experiment: Cell proliferation assay (CellTiter-Glo), H929; assay type: cell-based; settings: H929, Human Multiple Myeloma, peptides 100 μM-0.2 μM, 72 hrs
Method: as §1

Jurkat = experiment: Cell proliferation assay (CellTiter-Glo), Jurkat; assay type: cell-based; settings: RAF1 mRNA (Log2) 6.05, 72 hrs
Method: as §1

[1] = tested on: ten tumor cell lines and four non-tumor cell lines; experiment: Cell proliferation assay (CellTiter-Glo), summary over the cell panel; assay type: cell-based; settings: any of the cells screened
Method: as §1
Ten cancer cell lines were screened as well as […] non-cancer cell types (e.g. primary fibroblasts, CCD 841 CoN, and human hepatocytes). […]

FaDu = experiment: Cell proliferation assay (CellTiter-Glo), FaDu; assay type: cell-based; settings: EGFR mRNA (Log2) 6.28, 72 hrs
Method: as §1

SK-MEL-5 = experiment: Cell proliferation assay (CellTiter-Glo), SK-MEL-5; assay type: cell-based; settings: SK-MEL-5, EGFR mRNA (Log2) 5.92, 72 hrs
Method: as §1

[2] = tested on: Human umbilical vein endothelial cells (HUVEC); experiment: Cell proliferation assay (CellTiter-Glo), HUVEC; assay type: cell-based; settings: Normal endothelial (non-tumor), 72 hrs
Method: as §1

HT1376 = experiment: Cell proliferation assay (CellTiter-Glo), HT1376; assay type: cell-based; settings: HT1376, EGFR mRNA (Log2) 5., 72 hrs, starred value was averaged using >100 μM value for one trial result
Method: as §1

SNU398 = experiment: Cell proliferation assay (CellTiter-Glo), SNU398; assay type: cell-based; settings: SNU398, RAF1 mRNA (Log2) 6.07, 72 hrs
Method: as §1

Human Hepatocytes = experiment: Cell proliferation assay (CellTiter-Glo), Human Hepatocytes; assay type: cell-based; settings: Human Hepatocytes (non-tumor), 72 hrs
Method: as §1

HUH6-luc = experiment: Cell proliferation assay (CellTiter-Glo), HUH6-luc; assay type: cell-based; settings: RAF1 mRNA (Log2) 6.05, 72 hrs
Method: as §1

[3] = tested on: triple-negative breast cancer cell growth; experiment: Inhibition of cell growth by drug-like peptides (summary statements); assay type: cell-based; settings: compared with FDA approved small molecules
Method: Engineering Peptides for Exogenous Delivery. Peptides shown in FIG. 3B were fused to an N-terminal cell penetrating motif via a (GS)3 linker sequence (Table 5) and chemically synthesized by GenScript's Custom Peptide Synthesis service at crude purity. For dose response experiments, cells were plated in 96 well plates (n=4) at 50% confluency and peptides were added at the indicated concentrations with cell viability quantified after 24hrs via the WST-8 assay. Cell viability was normalized to that of an untreated control on the same plate.

MCF-7 cells = experiment: Arrayed validation of lentivirally delivered gene fragments, WST-8 cell growth, MCF-7
Method: (§2) All cell lines used were cultured in DMEM media supplemented with 10% FBS. The fitness impact of highly depleted gene fragments was tested in an arrayed format via a WST-8 (Dojindo) cell growth assay. […] Cells were transduced at an MOI of 4 and switched to puromycin containing media after 48 hours. Following 24 hours of puromycin selection 1,500 cells were seeded per well as biological replicates in a 96 well plate. All experimental groups for Hs578T cells had n=4. […] For HEK293T and MCF-7 cells all experimental groups had n=8. 2 μg/ml puromycin was used to select Hs578T and MCF-7 cells, while 3.5 μg/ml puromycin was used to select MDA-MB-231 and HEK293T cells. […] Cell growth was then quantified via absorbance at 450 nm following 1.5 hrs of incubation with WST-8 reagent. A two-tailed P value was then calculated via an unpaired ttest with Welch's correction.

Hs578T cells = experiment: Arrayed validation of lentivirally delivered gene fragments, WST-8 cell growth, Hs578T; settings: 7 days, vs GFP control
Method: as §2

HEK293T cells = experiment: Arrayed validation of lentivirally delivered gene fragments, WST-8 cell growth, HEK293T
Method: as §2

MDA-MB-231 cells = experiment: Arrayed validation of lentivirally delivered gene fragments, WST-8 cell growth, MDA-MB-231; settings: 7 days, vs GFP control
Method: as §2

In the case of “GRKKRRQRRRPPQGSGSGSDYKDHDGDYKDHDIDYKDDDDK [Tat-Flag, reference compound]”, the IC50 (Colo205) is reported as > 100 µM, the IC50 (Primary Fibroblasts) is reported as > 100 µM and the IC50 (A549) is reported as > 100 µM. For the same sequence, the IC50 (CCD 841 CoN) was > 100 µM, the IC50 (MDA-MB-231) was > 100 µM and the IC50 (H929) was > 100 µM. The IC50 (Jurkat) was > 100 µM, the “activity in the cells screened” value [1] was “no activity” and the IC50 (FaDu) was > 100 µM. For the same sequence, the IC50 (SK-MEL-5) was > 100 µM, the IC50 [2] was > 100 µM and the IC50 (HT1376) was > 100 µM. The IC50 (SNU398) was > 100 µM, the IC50 (Human Hepatocytes) was > 100 µM and the IC50 (HUH6-luc) was > 100 µM.
“GRKKRRQRRRPPQGSGSGSMEAPNQALLRILKETEFKKIKVLGSGAFGTVYKGLWIPEGE [Tat-EGFR-697]” gave an IC50 (Colo205) of 19.8 µM, an IC50 (Primary Fibroblasts) of 15.1 µM and an IC50 (A549) of 59.6 µM. The IC50 (CCD 841 CoN) was > 100 µM, the IC50 (MDA-MB-231) was 56.6 µM and the IC50 (H929) was 5.1 µM. It also gave an IC50 (Jurkat) of 41.1 µM, an IC50 (FaDu) of 89.2 µM and an IC50 (SK-MEL-5) of 27.6 µM. It also gave an IC50 [2] of 14 µM, an IC50 (HT1376) of 95.6 µM and an IC50 (SNU398) of 29.2 µM. It also gave an IC50 (Human Hepatocytes) of 11.6 µM and an IC50 (HUH6-luc) of 73.5 µM.
In the case of “MEAPNQALLRILKETEFKKIKVLGSGAFGTVYKGLWIPEGE [EGFR-697]”, the “triple-negative breast cancer cell growth in vitro” value [3] is reported as “opposed triple-negative breast cancer cell growth in vitro as effectively as some FDA approved small molecules”, the “cell growth after lentiviral overexpression (WST-8)” value (“cell growth … (WST-8)” below) (MCF-7 cells) is reported as “reduced fitness defect” and the “cell growth … (WST-8)” value (Hs578T cells) is reported as “deleterious to cell growth; also recorded: significant growth arrest”. For the same sequence, the “cell growth … (WST-8)” value (HEK293T cells) was “no growth defects” and the “cell growth … (WST-8)” value (MDA-MB-231 cells) was “deleterious to cell growth”.
“MFVDEYDPTIEDSYRKQVVIDGETCLLDILDTAGKEEYSAM [KRAS61K-7]” was tested, and the “cell growth … (WST-8)” value (Hs578T cells) was “significantly reduced cell growth” and the “cell growth … (WST-8)” value (MDA-MB-231 cells) was “significantly reduced cell growth”.
“MIQNHFVDEYDPTIEDSYRKQVVIDGETCLLDILDTAGKEE [KRAS61K-3]” was tested, and the “cell growth … (WST-8)” value (Hs578T cells) was “significantly reduced cell growth” and the “cell growth … (WST-8)” value (MDA-MB-231 cells) was “significantly reduced cell growth”.
In the case of “MPTIEDSYRKQVVIDGETCLLDILDTAGKEEYSAMRDQYMR [KRAS61K-13]”, the “cell growth … (WST-8)” value (Hs578T cells) is reported as “significantly reduced cell growth” and the “cell growth … (WST-8)” value (MDA-MB-231 cells) is reported as “significantly reduced cell growth”.
For “MRNGMSLHDCLMKALKVRGLQPECCAVFRLLHEHKGKKARL (cysteines drawn unpaired) [RAF1-73]”, the “triple-negative breast cancer cell growth in vitro” value [3] was “opposed triple-negative breast cancer cell growth in vitro as effectively as some FDA approved small molecules” and the “cell growth … (WST-8)” value (HEK293T cells) was “no growth defects”.
